Experimental data taken from article PMC11258331 (Scientific Reports, 2024).
Marks after values point to notes of the source that are not given here.

Columns and labels:
[1] = test system: platelet aggregation induced by adenosine diphosphate (ADP); test: ADP (20 µM)-induced platelet aggregation, light transmission aggregometry; type: in vivo, human; conditions: drug alone (Treatment E or H)
Protocol: (§1) PD assessments were performed on Days 1 (≤ 24 h) and 5 (≤ 72 h) of each period (Supplementary Table 8); assessments included aPTT[18], FXIc[18], and bleeding time (assessed according to the PPD® Laboratories [Austin, TX] procedure where a blood pressure cuff, situated above the incision site, provided pressure at 40 mmHg and blood from the incision was wicked with filter paper every 30 s until cessation to record bleeding time). In addition, AA (1 mM), ADP) (20 µM)-, and collagen (5 μg/ml)-induced platelet aggregation assays were performed using light transmission aggregometry (PPD® Laboratories) and performed on Days 1 and 5 (≤ 24 h) for only Period 1.

[2] = test system: platelet aggregation induced by collagen; test: Collagen (5 μg/ml)-induced platelet aggregation, light transmission aggregometry; type: in vivo, human; conditions: drug alone (Treatment E or H)
Protocol: as §1

[3] = test system: arachidonic acid (AA)-induced platelet aggregation; test: AA (1 mM)-induced platelet aggregation, light transmission aggregometry; type: in vivo, human; conditions: drug alone (Treatment E or H)
Protocol: as §1

human carboxylesterase 1 = conditions: liver; cited from earlier work
healthy participants = test: Adverse events and bleeding-related AEs by treatment, phase I DDI study;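 note: counts from medical review of adverse event and bleeding-related adverse event reports, collected at selected times across the dosing interval, single US site, randomised 1:1:1 to one study part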
Protocol: Participants underwent screening evaluations to determine eligibility within 35 days of study drug administration, and eligible participants were randomly assigned 1:1:1 to a single part of the study.
Safety assessments were performed at selected times throughout the dosing interval (Supplementary Table 7). The assessments were based on medical review of AE and bleeding-related AE reports, and the results of vital sign measurements, ECG measurements, physical examinations, and clinical laboratory tests.

[4] = Plasma pharmacokinetics (LC-MS/MS, noncompartmental; GMR by linear mixed-effects model); conditions: for Cmax: geometric mean (90% CI);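 for all read-outs here: participants at one US clinical research site, randomized 1:1:1 to a single study part, with 90% CIs from a mixed-effects model on log-transformed PK parameters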
Protocol: The study (ClinicalTrials.gov Identifier: NCT03698513) was conducted at 1 clinical research center in the United States. […] Participants underwent screening evaluations to determine eligibility within 35 days of study drug administration, and eligible participants were randomly assigned 1:1:1 to a single part of the study.
All statistical analyses and calculations were performed using SAS® software (SAS Institute, Inc., Cary, North Carolina; version 9.3). All safety and plasma PK/PD data were summarized using descriptive statistics. Descriptive summaries were presented for continuous variables using number of subjects (N), mean, SD; median, minimum, and maximum. […] CIs were constructed using a linear mixed-effects model with treatment as a fixed effect and measurements within participants as repeated measures fitted to the log-transformed PK parameters.

COC(=O)[C@H](c1ccccc1Cl)N1CCc2sccc2C1 [Clopidogrel]
Inhibition of ADP-induced aggregation compared with baseline [1]: ~ 50%
Inhibition of collagen-induced aggregation compared with baseline [2]: < 10%
Inhibition of AA-induced aggregation compared with baseline [3]: ~ 60%
Share first-passed hydrolyzed to clopidogrel acid (human carboxylesterase 1): ~ 85 % of absorbed drug
Anal fissure hemorrhage (healthy participants; Part 2 (Treatments D-F)): 0 n (%)
Contusion (healthy participants; Part 2 (Treatments D-F)): 1 (2.8)^†† n (%)
Deaths (healthy participants; Part 2 (Treatments D-F)): 0 n (%)
Discontinuations due to AEs (healthy participants; Part 2 (Treatments D-F)): 1 (2.8)^‖ n (%)
Epistaxis (healthy participants; Part 2 (Treatments D-F)): 0 n (%)
Gingival bleeding (healthy participants; Part 2 (Treatments D-F)): 0 n (%)
Serious AEs (healthy participants; Part 2 (Treatments D-F)): 0 n (%)
Total participants with an AE (healthy participants; Part 2 (Treatments D-F)): 6 (16.7) n (%)
Total participants with bleeding event(s) (healthy participants; Part 2 (Treatments D-F)): 1 (2.8) n (%)
Vessel puncture site bruise (healthy participants; Part 2 (Treatments D-F)): 0 n (%)
Events of contusion reported by a single participant (healthy participants; bleeding AE): 1 events
Reduction of Cmax ([4]; Day 1, Treatment A vs Treatment C (aspirin and clopidogrel without milvexian)): 14%
Reduction of Cmax ([4]; Day 1, Treatment F (with milvexian) vs Treatment E (clopidogrel alone)): 9.1%
Cmax, geometric mean (90% CI) ([4]; Day 1, plasma, Treatment F (milvexian + clopidogrel), Part 2): 4.05 (3.09, 5.31) ng/mL
Cmax, geometric mean [n] (90% CI) ([4]; Day 5, plasma, Treatment C (placebo + aspirin + clopidogrel), Part 1): 1.15 (0.898, 1.46) ng/mL
Cmax ([4]; human, plasma, oral, Day 1, plasma, Treatment A (milvexian + aspirin + clopidogrel), Part 1): 3.29 ng/mL
Cmax ([4]; human, plasma, oral, Day 1, plasma, Treatment C (placebo + aspirin + clopidogrel), Part 1): 3.83 ng/mL
Cmax ([4]; human, plasma, oral, Day 1, plasma, Treatment E (placebo + clopidogrel), Part 2): 4.45 ng/mL
half-life ([4]; human, plasma, oral, Mean T1/2, with (Treatment F) and without (Treatment E) milvexian, Days 1 and 5): 1 to 2 h
Tmax ([4]; human, plasma, oral, Median Tmax, Day 1, Treatments F and E): 1 to 1.5 h
Tmax ([4]; human, plasma, oral, Median Tmax, Day 5, Treatments F and E): 0.5 to 1 h
Tmax ([4]; human, plasma, oral, Tmax, median [n] (range), Day 5, plasma, Treatment C (placebo + aspirin + clopidogrel), Part 1): 0.5 h
